Experimental data published in PubChem BioAssay AID1963420 (Molecular Pharmacology Branch, DTP, NCI, 2024).
“And” between values parts separate entries of the source, which are not always exact repeats. Equal values may be shown once.

System: 494315-158-R-J1-PDC complex spheroid growth, percent test/control
Assay: Anticancer human tumor 494315-158-R-J1-PDC patient-derived soft tissue sarcoma cell line growth inhibition [Asc]
Conditions: for viability, T/C: stronger effect = lower value
Procedure, shortened: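 Complex solid-tumor spheroids incorporating human endothelial and mesenchymal stem cells received single agents or combinations over half-log dilution ranges anchored to clinical Cmax.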

[1] = curve of first compound, second compound 0.1 µM
[2] = curve of first compound, second compound 0.316 µM
[3] = curve of first compound, second compound 1 µM
[4] = curve of first compound, second compound 3.16 µM
[5] = curve of first compound, second compound 10 µM
[6] = second compound 0.1 µM, first compound 0.0316 µM
[7] = second compound 0.1 µM, first compound 0.1 µM
[8] = second compound 0.316 µM, first compound 0.0316 µM
[9] = second compound 0.316 µM, first compound 0.1 µM
[10] = second compound 1 µM, first compound 0.0316 µM
[11] = second compound 1 µM, first compound 0.1 µM
[12] = second compound 3.16 µM, first compound 0.0316 µM
[13] = second compound 3.16 µM, first compound 0.1 µM
[14] = second compound 10 µM, first compound 0.0316 µM
[15] = second compound 10 µM, first compound 0.1 µM
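Also: compound exposure lasted seven days after spheroids formed for three days.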

NC(=O)C(=Cn1cnc(-c2cc(C(F)(F)F)cc(C(F)(F)F)c2)n1)c1cncnc1 + Cc1c(S(C)(=O)=O)c(-c2cc(F)cc(N3CCN(c4ccc(NS(=O)(=O)c5ccc(NC(CCN6CCC(C(=O)OCCCP(=O)(O)O)CC6)CSc6ccccc6)c(S(=O)(=O)C(F)(F)F)c5)cc4)CC3)c2)c(-c2ccc(Cl)cc2)n1C(C)C
IC50 [1]: 23.2 nM | IC50 [2]: 12.4 nM | IC50 [3]: 6.67 nM | IC50 [4]: 3.19 nM | IC50 [5]: 10.1 nM | viability, T/C (second compound 0.1 µM, first compound 0.000949 µM): 79.5% | viability, T/C (second compound 0.1 µM, first compound 0.003 µM): 82.6% | viability, T/C (second compound 0.1 µM, first compound 0.00949 µM): 66.8% | viability, T/C (second compound 0.1 µM, first compound 0.03 µM): 44.9% | viability, T/C (second compound 0.1 µM, first compound 0.0949 µM): 19.2% | viability, T/C (second compound 0.1 µM, first compound 0.3 µM): 6.1% | viability, T/C (second compound 0.316 µM, first compound 0.000949 µM): 72.7% | viability, T/C (second compound 0.316 µM, first compound 0.003 µM): 65.4% | viability, T/C (second compound 0.316 µM, first compound 0.00949 µM): 51.3% | viability, T/C (second compound 0.316 µM, first compound 0.03 µM): 40.7% | viability, T/C (second compound 0.316 µM, first compound 0.0949 µM): 23.2% | viability, T/C (second compound 0.316 µM, first compound 0.3 µM): 4.23% | viability, T/C (second compound 1 µM, first compound 0.000949 µM): 53.7% | viability, T/C (second compound 1 µM, first compound 0.003 µM): 57.8% | viability, T/C (second compound 1 µM, first compound 0.00949 µM): 46.2% | viability, T/C (second compound 1 µM, first compound 0.03 µM): 35.1% | viability, T/C (second compound 1 µM, first compound 0.0949 µM): 16.3% | viability, T/C (second compound 1 µM, first compound 0.3 µM): 4.03% | viability, T/C (second compound 3.16 µM, first compound 0.000949 µM): 52.2% | viability, T/C (second compound 3.16 µM, first compound 0.003 µM): 52.2% | viability, T/C (second compound 3.16 µM, first compound 0.00949 µM): 41.8% | viability, T/C (second compound 3.16 µM, first compound 0.03 µM): 24% | viability, T/C (second compound 3.16 µM, first compound 0.0949 µM): 12.9% | viability, T/C (second compound 3.16 µM, first compound 0.3 µM): 2.93% | viability, T/C (second compound 10 µM, first compound 0.000949 µM): 67.4% | viability, T/C (second compound 10 µM, first compound 0.003 µM): 58% | viability, T/C (second compound 10 µM, first compound 0.00949 µM): 54.7% | viability, T/C (second compound 10 µM, first compound 0.03 µM): 29.2% | viability, T/C (second compound 10 µM, first compound 0.0949 µM): 14.8% | viability, T/C (second compound 10 µM, first compound 0.3 µM): 2.12%

O=C(c1ccc(F)c(F)c1Nc1ccc(I)cc1F)N1CC(O)([C@@H]2CCCCN2)C1
viability, T/C (compound 0.00316 µM): 92.8% and 93% and 99.5% | viability, T/C (compound 0.01 µM): 111% and 90% and 99.1% | viability, T/C (compound 0.0316 µM): 108% and 106% and 90.2% | viability, T/C (compound 0.1 µM): 124% and 100% and 114% | viability, T/C (compound 0.316 µM): 98.4% and 90% and 111% | viability, T/C (compound 1 µM): 57.7% and 54.8% and 65.7% | IC50 (curve of compound): > 1000 nM

NC1CCC(NC2CC2c2ccccc2)CC1 (centres undefined) + Cc1c(S(C)(=O)=O)c(-c2cc(F)cc(N3CCN(c4ccc(NS(=O)(=O)c5ccc(NC(CCN6CCC(C(=O)OCCCP(=O)(O)O)CC6)CSc6ccccc6)c(S(=O)(=O)C(F)(F)F)c5)cc4)CC3)c2)c(-c2ccc(Cl)cc2)n1C(C)C
IC50 [1]: > 100 nM | IC50 [2]: > 100 nM | IC50 [3]: 9.33 nM | IC50 [4]: 0.337 nM | IC50 [5]: > 100 nM | viability, T/C (second compound 0.1 µM, first compound 0.000316 µM): 72.5% | viability, T/C (second compound 0.1 µM, first compound 0.001 µM): 71.3% | viability, T/C (second compound 0.1 µM, first compound 0.00316 µM): 78.8% | viability, T/C (second compound 0.1 µM, first compound 0.01 µM): 68.5% | viability, T/C [6]: 74.6% | viability, T/C [7]: 72.9% | viability, T/C (second compound 0.316 µM, first compound 0.000316 µM): 56.4% | viability, T/C (second compound 0.316 µM, first compound 0.001 µM): 61.5% | viability, T/C (second compound 0.316 µM, first compound 0.00316 µM): 61% | viability, T/C (second compound 0.316 µM, first compound 0.01 µM): 57.6% | viability, T/C [8]: 64.5% | viability, T/C [9]: 61.8% | viability, T/C (second compound 1 µM, first compound 0.000316 µM): 53.3% | viability, T/C (second compound 1 µM, first compound 0.001 µM): 67.5% | viability, T/C (second compound 1 µM, first compound 0.00316 µM): 61.7% | viability, T/C (second compound 1 µM, first compound 0.01 µM): 47.9% | viability, T/C [10]: 44.4% | viability, T/C [11]: 55.6% | viability, T/C (second compound 3.16 µM, first compound 0.000316 µM): 49.9% | viability, T/C (second compound 3.16 µM, first compound 0.001 µM): 47.4% | viability, T/C (second compound 3.16 µM, first compound 0.00316 µM): 43.6% | viability, T/C (second compound 3.16 µM, first compound 0.01 µM): 43% | viability, T/C [12]: 39.8% | viability, T/C [13]: 47.5% | viability, T/C (second compound 10 µM, first compound 0.000316 µM): 58% | viability, T/C (second compound 10 µM, first compound 0.001 µM): 58.6% | viability, T/C (second compound 10 µM, first compound 0.00316 µM): 57.9% | viability, T/C (second compound 10 µM, first compound 0.01 µM): 57.6% | viability, T/C [14]: 57.1% | viability, T/C [15]: 56%

C#Cc1c(F)ccc2cc(O)cc(-c3ncc4c(N5CC6CCC(C5)N6)nc(OCC56CCCN5CC(F)C6)nc4c3F)c12 (centres undefined) + Cc1c(S(C)(=O)=O)c(-c2cc(F)cc(N3CCN(c4ccc(NS(=O)(=O)c5ccc(NC(CCN6CCC(C(=O)OCCCP(=O)(O)O)CC6)CSc6ccccc6)c(S(=O)(=O)C(F)(F)F)c5)cc4)CC3)c2)c(-c2ccc(Cl)cc2)n1C(C)C
IC50 [1]: > 10000 nM | IC50 [2]: > 10000 nM | IC50 [3]: > 10000 nM | IC50 [4]: 4040 nM | IC50 [5]: > 10000 nM | viability, T/C [6]: 82.8% | viability, T/C [7]: 89.9% | viability, T/C (second compound 0.1 µM, first compound 0.316 µM): 77.2% | viability, T/C (second compound 0.1 µM, first compound 1 µM): 88.6% | viability, T/C (second compound 0.1 µM, first compound 3.16 µM): 80.4% | viability, T/C (second compound 0.1 µM, first compound 10 µM): 59.8% | viability, T/C [8]: 84.9% | viability, T/C [9]: 74.8% | viability, T/C (second compound 0.316 µM, first compound 0.316 µM): 74.8% | viability, T/C (second compound 0.316 µM, first compound 1 µM): 72.1% | viability, T/C (second compound 0.316 µM, first compound 3.16 µM): 71.9% | viability, T/C (second compound 0.316 µM, first compound 10 µM): 50.7% | viability, T/C [10]: 61.6% | viability, T/C [11]: 78.1% | viability, T/C (second compound 1 µM, first compound 0.316 µM): 72.8% | viability, T/C (second compound 1 µM, first compound 1 µM): 69.2% | viability, T/C (second compound 1 µM, first compound 3.16 µM): 71.1% | viability, T/C (second compound 1 µM, first compound 10 µM): 51.4% | viability, T/C [12]: 51.9% | viability, T/C [13]: 57.5% | viability, T/C (second compound 3.16 µM, first compound 0.316 µM): 65.7% | viability, T/C (second compound 3.16 µM, first compound 1 µM): 58.9% | viability, T/C (second compound 3.16 µM, first compound 3.16 µM): 51.5% | viability, T/C (second compound 3.16 µM, first compound 10 µM): 37.6% | viability, T/C [14]: 74.8% | viability, T/C [15]: 78.8% | viability, T/C (second compound 10 µM, first compound 0.316 µM): 88.2% | viability, T/C (second compound 10 µM, first compound 1 µM): 81.2% | viability, T/C (second compound 10 µM, first compound 3.16 µM): 81.3% | viability, T/C (second compound 10 µM, first compound 10 µM): 55.5%

Cn1ncnc1[C@H]1c2n[nH]c(=O)c3cc(F)cc(c23)N[C@@H]1c1ccc(F)cc1
viability, T/C (compound 0.000316 µM): 84.6% and 103% and 102% | viability, T/C (compound 0.001 µM): 85.7% and 93.6% and 83.1% | viability, T/C (compound 0.00316 µM): 83.3% and 95.1% and 85% | viability, T/C (compound 0.01 µM): 73.3% and 73.7% and 87.7% | viability, T/C (compound 0.0316 µM): 66.1% and 69.2% and 73.8% | viability, T/C (compound 0.1 µM): 67.4% and 65.3% and 60.4% | IC50 (curve of compound): > 100 nM
